Measured values reported in patent publication US20160061841A1, “NRF2-BASED CANCER TREATMENT AND DETECTION METHODS AND USES” (CanBas Co., Ltd., priority 2014, published 2016).
Where no end group is shown, it is not given here. [ ]: non-standard residue; d: D form. dPhe(F5) = N[C@H](Cc1c(F)c(F)c(F)c(F)c1F)C(=O)O; dBpa = N[C@H](Cc1ccc(C(=O)c2ccccc2)cc1)C(=O)O; dCha = N[C@H](CC1CCCCC1)C(=O)O

What was measured:
NCI-H522 = experiment: CDDP-enhancing activity of CBP501, cell cycle distribution by flow-cytometry; type: cell-based, Human; conditions: 1 h co-exposure with CDDP
Method: (§1) Cell culture and reagents. Human NSCLC cell lines were cultured in a variety of media, each supplemented with 10% fetal bovine serum (Invitrogen, San Diego, CA) at 37° C. with 5% CO2/air. The media used was RPMI1640 (Sigma-Aldrich, St. Louis, Mo.) for NCI-H1755, NCI-H2030, NCI-H1437, NCI-H2122, NCI-H2172, NCI-H2228, NCI-H1563, NCI-H1944, NCI-H1993, NCI-H1734, NCI-H1568, NCI-H2444, NCI-H2291, NCI-H2347, NCI-H1838, NCI-H1299, HCC827, NCI-H1975, NCI-H1155, NCI-H522 and NCI-H1703; RPMI1640 supplemented with 2mM L-glutamine (Invitrogen) for NCI-H727; RPMI1640 supplemented with 4.5 g/L D-glucose (Sigma-Aldrich), 10 mM HEPES (Sigma-Aldrich) and 1 mM sodium pyruvate (Sigma-Aldrich) for NCI-H358, NCI-H520, NCI-H23, NCI-H647 and NCI-H838; Ham's F12K (Sigma-Aldrich) for A549. CDDP was purchased from Sigma-Aldrich. Sulforaphane (SFN) was purchased from Sigma-Aldrich. All NSCLC cell lines were purchased from ATCC and STR analysis had been performed by ATCC to authenticate the identity of each cell line. All cell lines were used within three months after thawing.
(§2) Cell cycle analysis. Cells were plated in 24-well plates and incubated for 24 hours. The cells were treated with or without CDDP plus or minus CBP501 at the indicated concentration for the indicated times. The cells were harvested and stained with Krishan's solution (0.1% sodium citrate, 50 μg/ml propidium iodide, 20 μg/ml RNase A, 0.5% NP-40). Stained cells were analyzed by FACSCalibur (Becton Dickinson, Franklin Lakes, N.J.) using CELLQuest software (Becton Dickinson).
(§3) Here, the change in the cell cycle distribution, as indicated by flow-cytometry, was used to estimate the sensitivity of NSCLC cell lines to CBP501-enhanced cytotoxicity to CDDP. Such changes were monitored in cells treated with CDDP in the presence or absence of CBP501. The utility of this analysis for assessing the effectiveness of anti-cancer therapy is based on the absence of functioning G1/S checkpoint regulation in the cell cycle of many types of cancer cells (14). Lack of a functional G1/S checkpoint leads to an accumulation of cancer cells in G2/M phase upon their exposure to DNA-damaging anticancer agents (14, 15).
(§4) To assess the CDDP-enhancing activity of CBP501, one can examine either of two dose-response curves in which the X-axis indicates the dose of CDDP and Y-axis indicates either the number of cells in subG1 or in G2/M. The transition and peak in either dose-response curve will shift to the left in the presence of CBP501 for CBP501-sensitive cells, indicating the enhanced ability of CDDP to change the cell cycle distribution. […] Using this criterion based on CBP501's ability to shift the CDDP-induced subG1 or G2/M dose-response curve, twelve NSCLC cell lines were classified as being either, CBP501-sensitive or CBP501-insensitive. Cell lines that shifted the curve two fold or more were classified as CBP501 sensitive cells and those that shifted the curve less than two fold were classified as CBP501 insensitive (Table 1). Classification of CBP501 sensitivity in NSCLC cell lines.
(§5) Although the expression of Nrf2 or its several downstream transcription targets may possibly predict resistance to CBP501, the general reliability of these predictive markers for CBP501-sensitivity remained to be established. The combination effect of CBP501 and CDDP in sixteen additional NSCLC cell lines, classifying each as CBP501 sensitive or insensitive by the prior criteria was analyzed (Table 2). Classification of CBP501 sensitivity in additional NSCLC cell lines.

A549 = experiment: as above; type: cell-based, Human; conditions: 1 h co-exposure with CDDP, shift of subG1 or G2/M dose-response curve
Method: as §1, §2, §3, §4, §5

NCI-H1299 = experiment: as above; type: cell-based, Human; conditions: 1 h co-exposure with CDDP, shift of subG1 or G2/M dose-response curve
Method: as §1, §2, §3, §4, §5

HCC827 = experiment: as above; type: cell-based, Human; conditions: 1 h co-exposure with CDDP
Method: as §1, §2, §3, §4, §5

NCI-H1563 = experiment: as above; type: cell-based, Human; conditions: 1 h co-exposure with CDDP
Method: as §1, §2, §3, §4, §5

NCI-H1993 = experiment: as above; type: cell-based, Human; conditions: 1 h co-exposure with CDDP, shift of subG1 or G2/M dose-response curve
Method: as §1, §2, §3, §4, §5

NCI-H358 = experiment: as above; type: cell-based, Human; conditions: 1 h co-exposure with CDDP, shift of subG1 or G2/M dose-response curve
Method: as §1, §2, §3, §4, §5

[1] = test system: platinum-resistant ovarian carcinoma and MPM; conditions: cited from earlier work
NCI-H2444 = experiment: CDDP-enhancing activity of CBP501, cell cycle distribution by flow-cytometry; type: cell-based, Human; conditions: 1 h co-exposure with CDDP
Method: as §1, §2, §3, §4

NCI-H2030 = experiment: as above; type: cell-based, Human; conditions: 1 h co-exposure with CDDP, shift of subG1 or G2/M dose-response curve
Method: as §1, §2, §3, §4

NCI-H2122 = experiment: as above; type: cell-based, Human; conditions: 1 h co-exposure with CDDP, shift of subG1 or G2/M dose-response curve
Method: as §1, §2, §3, §4

NCI-H2172 = experiment: as above; type: cell-based, Human; conditions: 1 h co-exposure with CDDP, shift of subG1 or G2/M dose-response curve
Method: as §1, §2, §3, §4

NCI-H2228 = experiment: as above; type: cell-based, Human; conditions: 1 h co-exposure with CDDP
Method: as §1, §2, §3, §4

NCI-H1568 = experiment: as above; type: cell-based, Human; conditions: 1 h co-exposure with CDDP
Method: as §1, §2, §3, §4

NCI-H838 = experiment: as above; type: cell-based, Human; conditions: 1 h co-exposure with CDDP; for Folds increase of CDDP effect by CBP501: shift of subG1 or G2/M dose-response curve
Method: as §1, §2, §3, §4

NCI-H1944 = experiment: as above; type: cell-based, Human; conditions: 1 h co-exposure with CDDP, shift of subG1 or G2/M dose-response curve
Method: as §1, §2, §3, §4

NCI-H2347 = experiment: as above; type: cell-based, Human; conditions: 1 h co-exposure with CDDP
Method: as §1, §2, §3, §4

NCI-H2291 = experiment: as above; type: cell-based, Human; conditions: 1 h co-exposure with CDDP
Method: as §1, §2, §3, §4

[2] = test system: multiple kinases that phosphorylate CDC25C at Ser216; conditions: cited from earlier work
[3] = shift of subG1 or G2/M dose-response curve
[4] = NCI-H838 (Table 2, additional cell lines)

With “(d-Bpa)(d-Ser)(d-Trp)(d-Ser)(d-Phe-2,3,4,5,6-F)(d-Cha)(d-Arg)(d-Arg)(d-Arg)(d-Gln)(d-Arg)(d-Arg) ([dBpa][dS][dW][dS][dPhe(F5)][dCha][dR][dR][dR][dQ][dR][dR]) [CBP501, anti-cancer drug candidate; calmodulin modulation and G2 checkpoint abrogation]” the “Definition of CBP501 sensitivity” value (NCI-H522) was “Sensitive (Cell lines that shifted the curve two fold or more were classified as CBP501 sensitive cells)”, the “Folds increase of CDDP effect by CBP501” value (NCI-H522; [3]) was 2 fold and the “Folds increase of CDDP effect by CBP501” value (A549) was 2 fold. The “Folds increase of CDDP effect by CBP501” value (NCI-H1299) was 8 fold, the “Definition of CBP501 sensitivity” value (HCC827) was “Sensitive (Cell lines that shifted the curve two fold or more were classified as CBP501 sensitive cells)” and the “Folds increase of CDDP effect by CBP501” value (HCC827; [3]) was 4 fold. For the same substance, the “Definition of CBP501 sensitivity” value (NCI-H1563) was “Insensitive (those that shifted the curve less than two fold were classified as CBP501 insensitive)”, the “Folds increase of CDDP effect by CBP501” value (NCI-H1563; [3]) was 1.5 fold and the “Folds increase of CDDP effect by CBP501” value (NCI-H1993) was 2 fold. The “Folds increase of CDDP effect by CBP501” value (NCI-H358) was 1 fold, the “Primary endpoint for efficacy” value ([1]; MPM) was “primary endpoint for efficacy was achieved” and the Clinical activity ([1]; combination of CDDP plus CBP501, patients with platinum-resistant ovarian carcinoma and MPM) was “showed evidence of clinical activity”. For the same substance, the “Definition of CBP501 sensitivity” value (NCI-H2444) was “Sensitive (Cell lines that shifted the curve two fold or more were classified as CBP501 sensitive cells)”, the “Folds increase of CDDP effect by CBP501” value (NCI-H2444; [3]) was 2 fold and the “Folds increase of CDDP effect by CBP501” value (NCI-H2030) was 1 fold. The “Folds increase of CDDP effect by CBP501” value (NCI-H2122) was 1 fold, the “Folds increase of CDDP effect by CBP501” value (NCI-H2172) was 1.5 fold and the “Definition of CBP501 sensitivity” value (NCI-H2228) was “Insensitive (those that shifted the curve less than two fold were classified as CBP501 insensitive)”. The “Folds increase of CDDP effect by CBP501” value (NCI-H2228; [3]) was 1.5 fold, the “Definition of CBP501 sensitivity” value (NCI-H1568) was “Sensitive (Cell lines that shifted the curve two fold or more were classified as CBP501 sensitive cells)” and the “Folds increase of CDDP effect by CBP501” value (NCI-H1568; [3]) was 2 fold. For the same substance, the “Folds increase of CDDP effect by CBP501” value (NCI-H838; NCI-H838 (Table 1, initial twelve cell lines)) was 4 fold, the “Definition of CBP501 sensitivity” value (NCI-H838; [4]) was “Sensitive (Cell lines that shifted the curve two fold or more were classified as CBP501 sensitive cells)” and the “Folds increase of CDDP effect by CBP501” value (NCI-H838; [4]) was 2 fold. For the same substance, the “Folds increase of CDDP effect by CBP501” value (NCI-H1944) was 1.5 fold, the “Definition of CBP501 sensitivity” value (NCI-H2347) was “Sensitive (Cell lines that shifted the curve two fold or more were classified as CBP501 sensitive cells)” and the “Folds increase of CDDP effect by CBP501” value (NCI-H2347; [3]) was 4 fold. The “Definition of CBP501 sensitivity” value (NCI-H2291) was “Sensitive (Cell lines that shifted the curve two fold or more were classified as CBP501 sensitive cells)”, the “Folds increase of CDDP effect by CBP501” value (NCI-H2291; [3]) was 2 fold and the “Inhibition of kinases that phosphorylate CDC25C at Ser216” value [2] was “inhibits multiple kinases that phosphorylate CDC25C at Ser216”.
